Consider 36 compounds from ChEMBL document CHEMBL4043204, “meso-Dihydroguaiaretic acid derivatives with antibacterial and antimycobacterial activity” (Bioorg Med Chem, 2017).

Each structure is given as a SMILES string. Converted amounts (≈) assume the structure as drawn. The source made the active and inactive calls. No cut-off for these calls is given here.

What all share (format): functional
Test [1] has as its system Mycobacterium tuberculosis. Description: Antimycobacterial activity against isoniazid/rifampicin/ethambutol-resistant Mycobacterium tuberculosis G122 assessed as inhibition of mycobacterial growth incubated for 2 weeks by MABA method. The following applies: for MIC: Mycobacterium tuberculosis, G122, 336 h. In general terms: Resazurin is reduced to fluorescent resorufin, in cell work by metabolically active cells.

Test [2] concerns Mycobacterium tuberculosis. As to the kind of experiment: Antimycobacterial activity against isoniazid/rifampicin/streptomycin-resistant Mycobacterium tuberculosis G133 assessed as inhibition of mycobacterial growth incubated for 2 weeks by MABA method. As to conditions: for MIC: Mycobacterium tuberculosis, G133, 336 h.
In test [3] the test system is Mycobacterium tuberculosis. As to the kind of experiment: Antimycobacterial activity against isoniazid/rifampicin/ethambutol-resistant Mycobacterium tuberculosis G122 assessed as inhibition of mycobacterial growth up to 50 ug/ml incubated for 2 weeks by MABA method.
For test [4], the system named is Mycobacterium tuberculosis. As to the kind of experiment: Antimycobacterial activity against isoniazid/rifampicin/streptomycin-resistant Mycobacterium tuberculosis G133 assessed as inhibition of mycobacterial growth up to 50 ug/ml incubated for 2 weeks by MABA method.
Test [5] has as its system Mycobacterium tuberculosis. Description: Antibacterial activity against multidrug-resistant Mycobacterium tuberculosis.

The MIC is the least concentration at which growth counts as inhibited. For `COc1cc(C[C@@H](C)[C@@H](C)Cc2ccc(OC(C)=O)c(OC)c2)ccc1OC(C)=O`, in test [1], the “-logMIC” value is given as 4.23 and the MIC was more than 50 mg/L. Also, in test [2], the “-logMIC” value is 4.23 and the MIC is more than 50 mg/L.
Take `COc1cc(C[C@@H](C)[C@@H](C)Cc2ccc(OC(=O)c3ccccc3[N+](=O)[O-])c(OC)c2)ccc1OC(=O)c1ccccc1[N+](=O)[O-]`: the “-logMIC” value in test [1] and in test [2] was 4.03 in each case. In addition, the “growth inhibition (GI)” value in test [3] and in test [4] was “inactive” each time.
In the case of `CCCCCCCC/C=C\CCCCCCCC(=O)Oc1ccc(C[C@@H](C)[C@@H](C)Cc2ccc(OC(=O)CCCCCCC/C=C\CCCCCCCC)c(OC)c2)cc1OC`, the “-logMIC” value in test [1] and in test [2] was 4.58 throughout. Moreover, the “growth inhibition (GI)” value in test [3] and in test [4] was “inactive” in each case.
For `COc1cc(C[C@@H](C)[C@@H](C)Cc2ccc(OC(=O)c3ccccn3)c(OC)c2)ccc1OC(=O)c1ccccn1`, the “-logMIC” value in test [1] and in test [2] was 3.91 throughout. Moreover, the “growth inhibition (GI)” value in test [3] and in test [4] was “inactive” each time.
On to `COc1cc(C[C@@H](C)[C@@H](C)Cc2ccc(OC(=O)c3ccc(Br)cc3)c(OC)c2)ccc1OC(=O)c1ccc(Br)cc1`, for which the “-logMIC” value in test [1] and in test [2] was 4.09 in each case. The “growth inhibition (GI)” value in test [3] and in test [4] was “inactive” throughout.
Regarding `COc1cc(C[C@@H](C)[C@@H](C)Cc2ccc(OCCN3CCCC3)c(OC)c2)ccc1OCCN1CCCC1`, the minimal inhibitory concentration (MIC) in test [1] and in test [2] was 12.5 mg/L (≈ 23.8 µM) each time.
On to `CCCC(=O)Oc1ccc(C[C@@H](C)[C@@H](C)Cc2ccc(OC(=O)CCC)c(OC)c2)cc1OC`, for which the “-logMIC” value in test [1] and in test [2] was 4.03 each time. Also, the “growth inhibition (GI)” value in test [3] and in test [4] was “inactive” each time.
Take `CCCCCCCCCCCCCCCC(=O)Oc1ccc(C[C@@H](C)[C@@H](C)Cc2ccc(OC(=O)CCCCCCCCCCCCCCC)c(OC)c2)cc1OC`: the “-logMIC” value in test [1] and in test [2] was 4.02 throughout. In addition, the “growth inhibition (GI)” value in test [3] and in test [4] was “inactive” in each case.
`COc1cc(C[C@@H](C)[C@@H](C)Cc2ccc(OC(=O)c3cccnc3)c(OC)c2)ccc1OC(=O)c1cccnc1`: in test [1], the “-logMIC” value is 4.2 and the MIC is more than 50 mg/L. Moreover, in test [2], the “-logMIC” value is reported as 4.2 and the MIC is more than 50 mg/L.
As for `COc1cc(C[C@@H](C)[C@@H](C)Cc2ccc(OCCN(C)C)c(OC)c2)ccc1OCCN(C)C`, in test [1], the “-logMIC” value came to 4.62 and the MIC amounted to 12.5 mg/L (≈ 26.4 µM). For the same compound, in test [2], the “-logMIC” value is reported as 4.62 and the MIC amounted to 12.5 mg/L (≈ 26.4 µM).
For the compound `COc1cc(C[C@@H](C)[C@@H](C)Cc2ccc(OCCN3CCOCC3)c(OC)c2)ccc1OCCN1CCOCC1`, the figures for the minimum inhibitory concentration (MIC) in test [1] and in test [2] were 6.25 mg/L (≈ 11.2 µM) and 25 mg/L (≈ 44.9 µM), respectively.
For `CCCCCCCCCCCCCCCCCC(=O)Oc1ccc(C[C@@H](C)[C@@H](C)Cc2ccc(OC(=O)CCCCCCCCCCCCCCCCC)c(OC)c2)cc1OC`, the “-logMIC” value in test [1] and in test [2] was 3.85 throughout. Besides, the “growth inhibition (GI)” value in test [3] and in test [4] was “inactive” in each case.
In the case of `COc1cc(C[C@@H](C)[C@@H](C)Cc2ccc(OC(=O)c3ccccc3)c(OC)c2)ccc1OC(=O)c1ccccc1`, the “-logMIC” value in test [1] and in test [2] was 4.14 in each case. In addition, the “growth inhibition (GI)” value in test [3] and in test [4] was “inactive” throughout.
As for `COc1cc(C[C@@H](C)[C@@H](C)Cc2ccc(OCCN3CCCCC3)c(OC)c2)ccc1OCCN1CCCCC1`, the MIC in test [1] and in test [2] was 6.25 mg/L (≈ 11.3 µM) each time.
Regarding `CCN(CC)CCOc1ccc(C[C@@H](C)[C@@H](C)Cc2ccc(OCCN(CC)CC)c(OC)c2)cc1OC`, the “-logMIC” value in test [1] and in test [2] was 4.25 in each case. Further, the MIC in test [1] and in test [2] was 25 mg/L (≈ 47.3 µM) each time.
As for `COc1cc(C[C@@H](C)[C@@H](C)Cc2ccc(OC(=O)c3cnccn3)c(OC)c2)ccc1OC(=O)c1cnccn1`, in test [1], the “-logMIC” value turned out to be 4.23 and the MIC is more than 50 mg/L. Also, in test [2], the “-logMIC” value is on record as 4.23 and the minimum inhibitory concentration (MIC) was more than 50 mg/L.
For `COc1cc(C[C@@H](C)[C@@H](C)Cc2ccc(OC(=O)c3ccc(Br)cc3)c(OC)c2)ccc1O` (racemic), in test [1], the “-logMIC” value is given as 3.98 and the minimum inhibitory concentration (MIC) is more than 50 mg/L. In test [2], the “-logMIC” value worked out at 3.97 and the MIC is more than 50 mg/L.
With `COc1cc(C[C@@H](C)[C@@H](C)Cc2ccc(OC(=O)c3ccccc3[N+](=O)[O-])c(OC)c2)ccc1O` (racemic), in test [1], the “-logMIC” value was determined as 4.24 and the minimal inhibitory concentration (MIC) was 50 mg/L (≈ 104 µM). In addition, in test [2], the “-logMIC” value is 3.93 and the MIC is more than 50 mg/L.
Regarding `CCCCCCCCCCCCCCCCCC(=O)Oc1ccc(C[C@H](C)[C@H](C)Cc2ccc(O)c(OC)c2)cc1OC` (racemic), the “-logMIC” value in test [1] and in test [2] was 3.84 each time. The “growth inhibition (GI)” value in test [3] and in test [4] was “inactive” in each case.
`COc1cc(C[C@@H](C)[C@@H](C)Cc2ccc(OCCN3CCCCC3)c(OC)c2)ccc1O` (racemic): the MIC in test [1] and in test [2] was 25 mg/L (≈ 56.6 µM) in each case.
As to `COc1cc(C[C@@H](C)[C@@H](C)Cc2ccc(OC(C)=O)c(OC)c2)ccc1O` (racemic), in test [1], the “-logMIC” value was determined as 4.07 and the MIC is more than 50 mg/L. In addition, in test [2], the “-logMIC” value is listed as 4.07 and the MIC was more than 50 mg/L.
As to `CCCCCCCC/C=C\CCCCCCCC(=O)Oc1ccc(C[C@H](C)[C@H](C)Cc2ccc(O)c(OC)c2)cc1OC` (racemic), the “-logMIC” value in test [1] and in test [2] was 3.9 each time. In addition, the “growth inhibition (GI)” value in test [3] and in test [4] was “inactive” in each case.
As for `COc1cc(C[C@@H](C)[C@@H](C)Cc2ccc(OC(=O)c3ccccc3)c(OC)c2)ccc1O` (racemic), in test [1], the “-logMIC” value worked out at 4.01 and the MIC was more than 50 mg/L. Further, in test [2], the “-logMIC” value stood at 4 and the MIC is more than 50 mg/L.
As to `CCCC(=O)Oc1ccc(C[C@H](C)[C@H](C)Cc2ccc(O)c(OC)c2)cc1OC` (racemic), the “-logMIC” value in test [1] and in test [2] was 3.93 throughout. In addition, the “growth inhibition (GI)” value in test [3] and in test [4] was “inactive” each time.
Take `COc1cc(C[C@@H](C)[C@@H](C)Cc2ccc(OC(=O)c3cnccn3)c(OC)c2)ccc1O` (racemic): in test [1], the “-logMIC” value is listed as 4.07 and the MIC was more than 50 mg/L. In test [2], the “-logMIC” value is on record as 4.07 and the MIC was more than 50 mg/L.
In the case of `CCCCCCCCCCCCCCCC(=O)Oc1ccc(C[C@H](C)[C@H](C)Cc2ccc(O)c(OC)c2)cc1OC` (racemic), the “-logMIC” value in test [1] and in test [2] was 3.93 throughout. In addition, the “growth inhibition (GI)” value in test [3] and in test [4] was “inactive” each time.
For `COc1cc(C[C@@H](C)[C@@H](C)Cc2ccc(OCCN3CCCC3)c(OC)c2)ccc1O` (racemic), the “-logMIC” value in test [1] and in test [2] was 4.95 throughout. Moreover, the minimum inhibitory concentration (MIC) in test [1] and in test [2] was 25 mg/L (≈ 58.5 µM) each time.
Consider `COc1cc(C[C@@H](C)[C@@H](C)Cc2ccc(OC(=O)c3cccnc3)c(OC)c2)ccc1O` (racemic), for which the “-logMIC” value in test [1] and in test [2] was 4.05 in each case. In addition, the MIC in test [1] and in test [2] was 50 mg/L (≈ 115 µM) in each case.
In the case of `COc1cc(C[C@@H](C)[C@@H](C)Cc2ccc(OC(=O)c3ccccn3)c(OC)c2)ccc1O` (racemic), in test [1], the “-logMIC” value came to 3.86 and the MIC was determined as 25 mg/L (≈ 57.4 µM). In addition, in test [2], the “-logMIC” value is given as 3.86 and the minimum inhibitory concentration (MIC) is more than 50 mg/L.
Take `COc1cc(C[C@@H](C)[C@@H](C)Cc2ccc(OCCN(C)C)c(OC)c2)ccc1O` (racemic): in test [1], the “-logMIC” value stood at 4.23 and the minimum inhibitory concentration (MIC) was more than 50 mg/L. For the same compound, in test [2], the “-logMIC” value was 4.23 and the MIC was more than 50 mg/L.
Consider `COc1cc(C[C@@H](C)[C@@H](C)Cc2ccc(OC)c(OC)c2)ccc1O` (racemic), for which the “-logMIC” value in test [1] and in test [2] was 3.94 each time. In addition, the minimum inhibitory concentration (MIC) in test [1] and in test [2] was 50 mg/L (≈ 145 µM) each time.
For the compound `COc1cc(C[C@@H](C)[C@@H](C)Cc2ccc(OCCN3CCOCC3)c(OC)c2)ccc1O` (racemic), the “growth inhibition (GI)” value in test [3] and in test [4] was “inactive” throughout.
Regarding `CC[C@@H](CO)NCCN[C@@H](CC)CO` [ETHAMBUTOL], the minimum inhibitory concentration (MIC) in test [1] turned out to be 6.25 mg/L (≈ 30.6 µM); in test [2], 3.12 mg/L (≈ 15.3 µM).
For the compound `C[C@H]1COc2c(N3CCN(C)CC3)c(F)cc3c(=O)c(C(=O)O)cn1c23.C[C@H]1COc2c(N3CCN(C)CC3)c(F)cc3c(=O)c(C(=O)O)cn1c23.O` [LEVOFLOXACIN], the MIC in test [1] was 6.25 mg/L; in test [2], 1.56 mg/L.
In the case of `COc1cc(C[C@@H](C)[C@@H](C)Cc2ccc(O)c(OC)c2)ccc1O` [MESODIHYDROGUAIARETIC ACID], the results for the minimum inhibitory concentration (MIC) in test [5], in test [1] and in test [2] were 12.5 to 50 mg/L (≈ 37.8 to 151 µM), more than 50 mg/L and more than 50 mg/L, respectively.
With `COc1ccc(C[C@@H](C)[C@@H](C)Cc2ccc(OC)c(OC)c2)cc1OC` [TERAMEPROCOL], the figures for the “-logMIC” value in test [1] and in test [2] were 4.95 and 4.35, respectively. The “growth inhibition (GI)” value in test [3] and in test [4] was “inactive” in each case.
